From patent US4427686A, “Pharmacologically active benzopyranotriazole compounds” (Beecham Group Limited, priority 1980, dated 1984)
Values belong to the molecule of their own block, whether it stands above or below them.

Assays:
[1] = tested on: rat passive peritoneal anaphylaxis; assay: Rat Passive Peritoneal Anaphylaxis (PPA); assay type: in vivo, rat (Charles River Sprague Dawley male); details: Mean ± SEM, 5-7 rats per group, sodium salt
Text: (a) inhibit rat passive peritoneal anaphylaxis; and
(§1) The compounds were used in the form of their sodium salts.
(§2) Charles River Sprague Dawley male rats of 250-300 g. and Dunkin Hartley male white guinea pigs of 250-300 g. were used.
The method has been described previously. (Ross, Janet W., Smith, H. and Spicer, Barbara A. Increased vascular permeability during passive peritoneal anaphylaxis in the rate. Int. Arch. Allergy appl. Immun., 51, 226, 1976).
Rats were sensitised by giving an intraperitoneal injection of 0.5 ml of Bordetella pertussis vaccine (4×10^10 organisms/ml Burroughs Wellcome, London) and a subcutaneous injection of 0.5 ml of an emulsion of 100 mg of ovalbumin (chicken egg albumin, crystallised and lyophilised, grade 3, Sigma, London) in 2 ml of isotonic saline and 3 ml of Freund's incomplete adjuvant (Difco Laboratories, Michigan, USA).
The rats were bled by cardiac puncture, on day 18, the blood was pooled, and the serum separated, stored at -20° C. and thawed only once before use.
Rats were each given an intraperitoneal injection of 2 ml of a 1 in 5 dilution of the rat anti-serum in isotonic saline. Two hours later 0.3 ml of a 5% solution of Pontamine Sky Blue (Raymond A. Lamb, London) in isotonic saline was injected intravenously, followed by an intraperitoneal injection of the test compound in 1 ml of saline; (control rats received 1 ml of saline); followed 30 seconds later by an intraperitoneal injection of 5 ml of Tyrode's solution containing 50 μg/ml heparin and 0.4 mg/ml of ovalbumin. The concentrations of the compounds are quoted as those in the 6 ml of fluid injected intraperitoneally. Exactly five minutes after challenge the rats were stunned and bled and their peritoneal fluids were collected by opening their peritoneal cavities over funnels into polycarbonate tubes in ice. The supernatants were separated from the cellular residue by centrifugation at 150 g. for five minutes and were retained for assay of dye and histamine. Any samples obviously contaminated with blood were not used for estimation of dye. Groups of at least five rats were used for each dose of compound and the treatments were randomised.
Dye was assayed within two hours by measurement of optical density (OD) at 625 nm.
For histamine assay 0.5 ml samples of the supernatants were added to 1 ml volumes of 12% trichloracetic acid and stored at -20° C. The deproteinised samples were assayed using an automated spectrofluorimetric system (Technicon Autoanalyser) by a method similar to that of Evans, D. P., Lewis, J. A. and Thomson, D. S.: (An automated fluorimetric assay for the rapid determination of histamine in biological fluids. Life Sci., 12, 327, 1973).

[2] = tested on: slow reacting substance of anaphylaxis, SRS-A, on isolated guinea pig ileum; assay: SRS-A Antagonism on Guinea Pig Ileum; parameters: species or system guinea pig (Dunkin Hartley male); details: atropine 5×10^-7 M and mepyramine 10^-6 M, sodium salt, read-out: Approximate concentration to give a 50% inhibition of a less than maximal response to SRS-A
Description: (b) antagonise the spasmogenic effects of slow reacting substance of anaphylaxis, SRS-A, on isolated guinea pig ileum.
as §1, §2
The compounds were evaluated as direct antagonists of slow reacting substance of anaphylaxis (SRS-A) by assay using the isolated guinea pig ileum.
SRS-A rat was obtained from the peritoneal cavity of the rat after passive peritoneal anaphylaxis by a method based on that of R. P. Orange, D. J. Stechschulte and K. F. Austen, J. Immunology, 105, 1087 (1970) as described by J. W. Ross, H. Smith and B. A. Spicer 1976, Increased vascular permeability during passive peritoneal anaphylaxis in the rat. Int. Arch. Allergy appl., 51, 226. The sensitising serum containing antibody was produced in rats as described by J. W. Ross et. al., ibid.
2 ml of a 1 in 5 dilution of the sensitising serum was injected by the peritoneal route into recipient rats and after 2 hours 5 ml of Tyrode's solution containing 0.4 mg/ml ovalbumin (Sigma Grade III) and 50 μg/ml heparin was injected by the same route. Five minutes after challenge the rats were stunned and bled and the peritoneal fluids collected into polycarbonate tubes in ice. After centrifugation at 150 g. for five minutes the supernatants were combined, heated in a boiling water bath for five minutes, cooled and stored at -20° C. The combined peritoneal fluids contained SRS-A and were used in the antagonism studies.
The SRS-A assays were carried out on isolated strips of guinea pig ileum in Tyrode's solution containing atropine 5×10^-7 M and mepyramine 10^-6 M as described by W. E. Brocklehurst, J. Physiology, 151, 416 (1960).
The ability of the antagonists was determined by their ability to reduce submaximal responses induced by SRS-A. The antagonists were added to the 4 ml bath in 0.1 ml volumes in aqueous solution half a minute before the addition of SRS-A and were present during induced contraction.

released SRS-A = details: background art; cited from earlier work
[3] = tested on: release of allergic response mediators; details: background art; cited from earlier work

SMILES: CCCc1c(OCC(O)COc2ccc3c(=O)cc(C(=O)O)oc3c2CCC)ccc(C(C)=O)c1O (stereo not shown) [FPL 55712]
inhibition of released SRS-A (released SRS-A): inhibit released SRS-A
inhibition of release of allergic response mediators [3]: able to effect at least some inhibition of release of these allergic response mediators

SMILES: CCCc1c(OCC(O)COc2ccc3c(=O)c4[nH]nnc4oc3c2C)ccc(C(C)=O)c1O (stereo not shown) [Example 2, 6-[3-(4-Acetyl-3-hydroxy-2-n-propylphenoxy)-2-hydroxypropan-1-yloxy]-5-methyl-9-oxo-1H,9H-benzopyrano[2,3-d]-v-triazole]
Dye concentration in peritoneal fluid as % of mean of controls ([1]; 2 × 10^-6 M injected ip): 42 ± 5 % of mean of controls
Histamine concentration in peritoneal fluid as % of mean of controls ([1]; 2 × 10^-6 M injected ip): 14 ± 2 % of mean of controls
Dye concentration in peritoneal fluid as % of mean of controls ([1]; 2 × 10^-7 M injected ip): 61 ± 7 % of mean of controls
Histamine concentration in peritoneal fluid as % of mean of controls ([1]; 2 × 10^-7 M injected ip): 56 ± 1 % of mean of controls
IC50 [2]: ~32 nM

SMILES: CCCc1c(OCCCOc2ccc3c(=O)c4[nH]nnc4oc3c2C)ccc(C(C)=O)c1O [Example 1, 6-[3-(4-Acetyl-3-hydroxy-2-n-propylphenoxy)propan-1-yloxy]-5-methyl-9-oxo-1H,9H-benzopyrano[2,3,d]-v-triazole]
Dye concentration in peritoneal fluid as % of mean of controls ([1]; 2 × 10^-5 M injected ip): 54 ± 7 % of mean of controls
Histamine concentration in peritoneal fluid as % of mean of controls ([1]; 2 × 10^-5 M injected ip): 17 ± 2 % of mean of controls
Dye concentration in peritoneal fluid as % of mean of controls ([1]; 2 × 10^-6 M injected ip): 63 ± 5 % of mean of controls
Histamine concentration in peritoneal fluid as % of mean of controls ([1]; 2 × 10^-6 M injected ip): 18 ± 2 % of mean of controls
IC50 [2]: ~100 nM

More lines, main results first:

IC50 [2]: ~63 nM
SMILES: CCCc1c(OCC(O)COc2ccc3c(=O)c4[nH]nnc4oc3c2)ccc(C(C)=O)c1O (stereo not shown) [Example 3, 6-[3-(4-Acetyl-3-hydroxy-2-n-propylphenoxy)-2-hydroxypropan-1-yloxy]-9-oxo-1H,9H-benzopyrano[2,3-d]-v-triazole]
Dye concentration in peritoneal fluid as % of mean of controls ([1]; 2 × 10^-6 M injected ip): 51 ± 5 % of mean of controls
Histamine concentration in peritoneal fluid as % of mean of controls ([1]; 2 × 10^-6 M injected ip): 16 ± 2 % of mean of controls
Dye concentration in peritoneal fluid as % of mean of controls ([1]; 2 × 10^-7 M injected ip): 74 ± 9 % of mean of controls
Histamine concentration in peritoneal fluid as % of mean of controls ([1]; 2 × 10^-7 M injected ip): 56 ± 5 % of mean of controls

IC50 [2]: ~50 nM
SMILES: CCCc1c(OCCCOc2cccc3oc4nn[nH]c4c(=O)c23)ccc(C(C)=O)c1O [Example 4, 8-[3-(4-Acetyl-3-hydroxy-2-n-propylphenoxy)-propan-1-yloxy]-9-oxo-1H,9H-benzopyrano-[2,3-d]-v-triazole]
Dye concentration in peritoneal fluid as % of mean of controls ([1]; 2 × 10^-5 M injected ip): 92 ± 10 % of mean of controls
Histamine concentration in peritoneal fluid as % of mean of controls ([1]; 2 × 10^-5 M injected ip): 42 ± 6 % of mean of controls
Dye concentration in peritoneal fluid as % of mean of controls ([1]; 2 × 10^-6 M injected ip): 104 ± 20 % of mean of controls
Histamine concentration in peritoneal fluid as % of mean of controls ([1]; 2 × 10^-6 M injected ip): 89 ± 7 % of mean of controls
